Active and inactive are the calls of the source.
Assays:
[1] = target: T1, DNA repair protein RAD52 homolog (Homo sapiens, UniProt P43351); assay type: functional, biochemical
T1 sequence (P43351 whole entry): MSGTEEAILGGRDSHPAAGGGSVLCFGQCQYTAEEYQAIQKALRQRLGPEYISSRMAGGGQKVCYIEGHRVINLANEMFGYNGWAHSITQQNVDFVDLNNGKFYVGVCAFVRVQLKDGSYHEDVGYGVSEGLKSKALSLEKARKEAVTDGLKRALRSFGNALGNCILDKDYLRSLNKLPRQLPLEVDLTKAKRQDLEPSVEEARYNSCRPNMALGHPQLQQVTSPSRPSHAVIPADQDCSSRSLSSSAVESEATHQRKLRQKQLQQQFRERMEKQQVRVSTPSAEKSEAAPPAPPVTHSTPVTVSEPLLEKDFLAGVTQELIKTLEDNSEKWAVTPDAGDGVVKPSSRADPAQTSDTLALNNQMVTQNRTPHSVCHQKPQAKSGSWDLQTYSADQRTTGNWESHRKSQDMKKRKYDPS

[2] = NIH-3T3 fibroblast cytotoxicity, dose response, cytotoxicity control, cell-based, fluorescence, Alamar Blue, secondary assay (AID 2327); assay type: functional;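 further: NIH-3T3 mouse fibroblasts cultured with fluconazole at 8 µg/mL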
[3] = target: T2, Ubiquitin-conjugating enzyme E2 N (Homo sapiens, UniProt P61088); assay type: functional;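 further: Dose-response confirmation in a TR-FRET assay detecting UBC13-driven polyubiquitin chain formation, inhibition measured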
T2 sequence (P61088 whole entry): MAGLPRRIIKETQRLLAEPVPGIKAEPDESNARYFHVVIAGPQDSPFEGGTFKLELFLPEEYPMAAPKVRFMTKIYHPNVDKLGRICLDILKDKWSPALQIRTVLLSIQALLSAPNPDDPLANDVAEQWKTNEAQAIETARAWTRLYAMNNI

[4] = target: Eukaryotic translation initiation factor 4E (Mus musculus, UniProt P63073); assay: blockers of eIF4G binding by eIF4E – biochemical, TR-FRET, dose response (AID 855); assay type: functional;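 further: potency for disrupting eIF4E binding to eIF4GI seen as loss of FRET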
[5] = viability of uninfected HEp-2 cells – cell-based, HTS, cytotoxicity control for RSV inhibitor project, dose response (AID 2410); assay type: functional; details: human respiratory syncytial virus
[6] = A Cell Based Secondary Assay To Explore Cytotoxicity of Compounds that Sensitize Mycobacterium Tuberculosis to Beta-Lactam Antibiotics.; assay type: functional
cells [7] = assay: cells
Large T antigen = Large T antigen (Simian virus 40, UniProt P03070); assay type: functional, Betapolyomavirus macacae;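 further: Confirmatory-stage PubChem screen for compounds that inhibit SV40 T antigen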
Nonstructural protein 1 = Nonstructural protein 1 (Influenza A virus, UniProt Q194T2); assay type: functional, Influenza A virus (A/California/07/2009(H1N1))
[8] = target: T3, Microphthalmia-associated transcription factor (Homo sapiens, UniProt O75030); assay: reducers of TRPM1 reporter luminescence, concentration series – cell-based, SK-MEL-5, cherry-picked, set 3, MITF inhibitor project, dose response (AID 493073); assay type: functional;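 further: SK-MEL-5 melanoma cells with luciferase driven by the MITF target TRPM1 promoter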
T3 sequence (O75030 whole entry): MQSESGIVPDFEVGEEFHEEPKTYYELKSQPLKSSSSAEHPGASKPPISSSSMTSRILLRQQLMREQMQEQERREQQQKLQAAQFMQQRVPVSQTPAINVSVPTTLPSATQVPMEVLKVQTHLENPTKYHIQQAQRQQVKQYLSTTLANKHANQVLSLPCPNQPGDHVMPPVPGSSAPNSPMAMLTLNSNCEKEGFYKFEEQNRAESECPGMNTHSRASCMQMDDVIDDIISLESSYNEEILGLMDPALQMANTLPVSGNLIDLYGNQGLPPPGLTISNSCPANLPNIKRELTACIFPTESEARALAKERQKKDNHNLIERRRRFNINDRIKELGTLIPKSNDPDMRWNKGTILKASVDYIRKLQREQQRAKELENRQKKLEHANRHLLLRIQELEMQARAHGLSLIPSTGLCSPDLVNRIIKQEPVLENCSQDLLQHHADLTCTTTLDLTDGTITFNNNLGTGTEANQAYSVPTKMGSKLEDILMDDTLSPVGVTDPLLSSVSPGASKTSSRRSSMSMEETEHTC

[9] = target: T4, Replicative DNA helicase DnaB (Mycobacterium tuberculosis, UniProt P9WMR3); assay: DnaB intein splicing inhibitors, dose response, biochemical, cell-free fluorescence (AID 449749); assay type: functional
T4 sequence (P9WMR3 whole entry): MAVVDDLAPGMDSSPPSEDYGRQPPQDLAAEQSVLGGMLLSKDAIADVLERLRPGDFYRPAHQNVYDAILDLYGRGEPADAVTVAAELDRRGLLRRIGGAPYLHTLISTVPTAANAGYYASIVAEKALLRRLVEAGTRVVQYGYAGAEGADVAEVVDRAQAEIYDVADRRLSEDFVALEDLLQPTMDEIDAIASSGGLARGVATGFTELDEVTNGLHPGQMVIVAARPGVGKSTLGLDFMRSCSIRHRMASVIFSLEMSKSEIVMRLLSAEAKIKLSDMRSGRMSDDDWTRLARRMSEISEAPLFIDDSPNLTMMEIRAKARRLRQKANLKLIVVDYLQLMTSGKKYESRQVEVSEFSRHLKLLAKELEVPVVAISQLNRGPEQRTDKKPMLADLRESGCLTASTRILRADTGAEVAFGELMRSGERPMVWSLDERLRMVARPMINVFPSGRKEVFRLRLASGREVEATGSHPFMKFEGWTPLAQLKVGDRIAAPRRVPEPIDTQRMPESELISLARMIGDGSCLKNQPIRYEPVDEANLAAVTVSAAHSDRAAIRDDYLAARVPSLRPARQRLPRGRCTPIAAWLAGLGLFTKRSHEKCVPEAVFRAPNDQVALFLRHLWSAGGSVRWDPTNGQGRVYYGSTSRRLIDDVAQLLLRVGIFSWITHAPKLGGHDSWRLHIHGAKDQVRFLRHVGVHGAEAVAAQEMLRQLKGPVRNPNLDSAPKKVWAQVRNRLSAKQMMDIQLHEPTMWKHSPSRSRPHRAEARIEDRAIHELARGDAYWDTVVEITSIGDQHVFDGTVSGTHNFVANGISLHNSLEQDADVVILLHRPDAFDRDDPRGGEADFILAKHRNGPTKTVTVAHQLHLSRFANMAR

Protein RecA = target: T5, Protein RecA (Mycobacterium tuberculosis, UniProt P9WHJ3); assay: Fluorescence Cell-Free Homogeneous Dose Retest to Identify Inhibitors of RecA-Intein Splicing Activity. [Related pubchem assays (depositor defined):AID2097, AID2223, AID489010, AID492950]; assay type: functional
T5 sequence (P9WHJ3 whole entry): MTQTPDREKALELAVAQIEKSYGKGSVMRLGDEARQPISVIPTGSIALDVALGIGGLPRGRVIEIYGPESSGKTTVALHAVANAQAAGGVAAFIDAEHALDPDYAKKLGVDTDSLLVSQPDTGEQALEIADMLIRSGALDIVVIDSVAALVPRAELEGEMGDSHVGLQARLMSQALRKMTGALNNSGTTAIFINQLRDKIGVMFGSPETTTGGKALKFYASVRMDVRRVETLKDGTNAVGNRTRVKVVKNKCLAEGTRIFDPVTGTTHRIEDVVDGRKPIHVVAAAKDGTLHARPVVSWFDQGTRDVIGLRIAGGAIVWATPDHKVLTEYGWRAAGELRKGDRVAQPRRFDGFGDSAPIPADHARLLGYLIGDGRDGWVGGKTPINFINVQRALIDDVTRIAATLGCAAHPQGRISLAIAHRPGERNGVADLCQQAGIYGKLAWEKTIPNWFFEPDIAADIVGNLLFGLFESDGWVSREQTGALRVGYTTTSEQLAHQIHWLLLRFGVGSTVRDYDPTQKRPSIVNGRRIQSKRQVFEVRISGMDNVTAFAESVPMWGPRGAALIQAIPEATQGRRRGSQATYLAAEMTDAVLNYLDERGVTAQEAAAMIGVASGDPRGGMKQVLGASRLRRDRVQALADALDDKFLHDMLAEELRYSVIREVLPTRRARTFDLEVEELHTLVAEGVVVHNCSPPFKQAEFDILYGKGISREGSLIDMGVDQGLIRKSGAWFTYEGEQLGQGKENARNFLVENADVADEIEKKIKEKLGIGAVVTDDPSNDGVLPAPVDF

[10] = viability loss in HeLa cells – cytotoxicity control for MgcRacGAP inhibitor project, dose response (AID 624300); assay type: functional
[11] = target: T6, Rac GTPase-activating protein 1 (Homo sapiens, UniProt Q9H0H5); assay: blockers of MgcRacGAP-driven Rac1 GTP hydrolysis – biochemical, ADP Hunter fluorescence, primary and confirmatory, confirmation (AID 624330); assay type: functional
T6 sequence (Q9H0H5 whole entry): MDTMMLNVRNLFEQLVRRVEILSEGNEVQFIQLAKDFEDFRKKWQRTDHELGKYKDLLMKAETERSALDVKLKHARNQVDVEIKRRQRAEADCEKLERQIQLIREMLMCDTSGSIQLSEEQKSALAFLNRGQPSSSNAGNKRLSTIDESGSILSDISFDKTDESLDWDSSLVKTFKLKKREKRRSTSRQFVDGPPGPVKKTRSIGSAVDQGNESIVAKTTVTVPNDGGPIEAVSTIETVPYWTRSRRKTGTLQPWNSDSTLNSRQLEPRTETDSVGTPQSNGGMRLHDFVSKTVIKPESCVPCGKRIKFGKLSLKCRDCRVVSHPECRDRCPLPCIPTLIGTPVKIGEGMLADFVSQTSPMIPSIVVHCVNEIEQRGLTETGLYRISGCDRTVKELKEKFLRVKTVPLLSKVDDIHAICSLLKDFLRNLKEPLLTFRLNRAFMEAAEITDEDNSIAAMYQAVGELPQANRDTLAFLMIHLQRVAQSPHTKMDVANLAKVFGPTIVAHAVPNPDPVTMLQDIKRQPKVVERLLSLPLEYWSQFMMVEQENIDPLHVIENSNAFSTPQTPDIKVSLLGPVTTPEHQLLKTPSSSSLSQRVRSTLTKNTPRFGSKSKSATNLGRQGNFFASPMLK

[12] = target: Heat shock protein HSP 90-alpha (Homo sapiens, UniProt P07900); assay type: functional, organism-based
[13] = target: DNA dC->dU-editing enzyme APOBEC-3A (Homo sapiens, UniProt P31941); assay: Dose Response confirmation of small molecule APOBEC3A DNA Deaminase Inhibitors via a fluorescence-based single-stranded DNA deaminase assay. [Related pubchem assays (depositor defined):AID493011, AID493024]; assay type: functional
[14] = target: DNA dC->dU-editing enzyme APOBEC-3G (Homo sapiens, UniProt Q9HC16); assay type: functional;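 further: Dose-response counterscreen measuring inhibition of APOBEC3G DNA deaminase activity, run while confirming APOBEC3A inhibitors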
[15] = target: Nuclear receptor subfamily 5 group A member 2 (Homo sapiens, UniProt O00482); assay type: functional, cell-based;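 further: HEK293T cells transfected with LRH-1 and a StAR promoter luciferase reporter; potency for inhibitors that lower LRH-1 driven reporter light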
Steroidogenic factor 1 = Steroidogenic factor 1 (Homo sapiens, UniProt Q13285); assay: Counterscreen for inverse agonists of the liver receptor homolog-1 (LRH-1; NR5A2): Luminescence-based cell-based high throughput dose response assay to identify inverse agonists of the Steroidogenic Factor 1 Nuclear Receptor (SF1; NR5A1).; assay type: functional
[16] = nonselective StAR promoter luciferase inhibitors – cell-based, luminescence, luciferase reporter, counter-screen for LRH-1 inverse agonist project, dose response (AID 651969); assay type: functional
Paired box protein Pax-8 = Paired box protein Pax-8 (Homo sapiens, UniProt Q06710); assay: PAX8 transcriptional activity inhibition in RMG-I – RMG-I cells, luciferase, cherry-pick, dose response (AID 687027); assay type: functional, cell-based;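 further: luciferase reporter driven by Pax8 target thyroperoxidase promoter measured by SteadyGlo luminescence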
cells [17] = assay type: functional, cell-based
[18] = fluconazole-exposed Candida albicans growth modulators – fluorescence, retest, confirmation (AID 2467); assay type: functional, cell-based
cells [19] = assay type: functional, cell-based; remark: listed apart in the source

Chain of Eukaryotic translation initiation factor 4E (P63073 whole entry): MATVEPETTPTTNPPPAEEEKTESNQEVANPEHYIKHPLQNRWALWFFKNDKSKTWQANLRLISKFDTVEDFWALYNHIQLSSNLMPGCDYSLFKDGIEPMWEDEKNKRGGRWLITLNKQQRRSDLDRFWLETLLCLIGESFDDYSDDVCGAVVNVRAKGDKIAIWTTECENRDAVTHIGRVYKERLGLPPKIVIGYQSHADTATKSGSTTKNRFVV
Chain of Paired box protein Pax-8 (Q06710 whole entry): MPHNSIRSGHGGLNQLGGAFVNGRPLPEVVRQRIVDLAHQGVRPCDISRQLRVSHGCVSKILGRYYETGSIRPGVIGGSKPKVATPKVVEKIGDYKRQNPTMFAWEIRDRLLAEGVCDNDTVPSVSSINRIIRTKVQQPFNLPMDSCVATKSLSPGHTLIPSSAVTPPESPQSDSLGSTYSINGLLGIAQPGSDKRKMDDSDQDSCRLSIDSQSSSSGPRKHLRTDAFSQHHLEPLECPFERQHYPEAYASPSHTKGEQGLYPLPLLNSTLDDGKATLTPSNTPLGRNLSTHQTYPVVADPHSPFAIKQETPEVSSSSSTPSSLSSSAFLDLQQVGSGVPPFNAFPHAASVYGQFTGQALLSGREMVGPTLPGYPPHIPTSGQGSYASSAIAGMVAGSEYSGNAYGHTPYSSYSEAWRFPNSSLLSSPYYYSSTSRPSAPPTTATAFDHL
Chain of DNA dC->dU-editing enzyme APOBEC-3G (Q9HC16 whole entry): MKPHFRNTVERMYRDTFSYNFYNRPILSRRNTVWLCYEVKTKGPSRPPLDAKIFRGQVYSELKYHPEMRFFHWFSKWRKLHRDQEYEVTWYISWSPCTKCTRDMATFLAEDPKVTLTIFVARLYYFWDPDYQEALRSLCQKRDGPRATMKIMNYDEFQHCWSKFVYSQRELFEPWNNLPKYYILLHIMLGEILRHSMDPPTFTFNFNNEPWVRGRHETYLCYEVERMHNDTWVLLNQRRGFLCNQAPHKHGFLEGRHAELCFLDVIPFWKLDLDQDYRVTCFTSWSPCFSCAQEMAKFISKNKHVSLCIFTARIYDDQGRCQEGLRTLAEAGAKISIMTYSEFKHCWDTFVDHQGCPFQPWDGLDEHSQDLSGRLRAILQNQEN
Chain of Nuclear receptor subfamily 5 group A member 2 (O00482 whole entry): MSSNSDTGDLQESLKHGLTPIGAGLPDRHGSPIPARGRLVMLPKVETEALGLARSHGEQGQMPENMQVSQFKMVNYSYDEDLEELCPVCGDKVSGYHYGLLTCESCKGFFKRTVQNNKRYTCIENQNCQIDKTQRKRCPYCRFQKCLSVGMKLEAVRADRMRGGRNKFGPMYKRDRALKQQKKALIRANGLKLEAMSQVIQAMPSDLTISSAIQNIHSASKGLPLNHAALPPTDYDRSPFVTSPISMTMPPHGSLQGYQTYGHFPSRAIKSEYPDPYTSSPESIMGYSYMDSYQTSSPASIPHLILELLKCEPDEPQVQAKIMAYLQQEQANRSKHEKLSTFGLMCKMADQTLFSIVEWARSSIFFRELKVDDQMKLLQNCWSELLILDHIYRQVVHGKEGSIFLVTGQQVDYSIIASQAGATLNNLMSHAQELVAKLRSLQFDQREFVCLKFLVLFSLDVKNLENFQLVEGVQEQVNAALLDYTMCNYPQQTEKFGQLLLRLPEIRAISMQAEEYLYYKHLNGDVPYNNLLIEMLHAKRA
Chain of Nonstructural protein 1 (Q194T2 whole entry): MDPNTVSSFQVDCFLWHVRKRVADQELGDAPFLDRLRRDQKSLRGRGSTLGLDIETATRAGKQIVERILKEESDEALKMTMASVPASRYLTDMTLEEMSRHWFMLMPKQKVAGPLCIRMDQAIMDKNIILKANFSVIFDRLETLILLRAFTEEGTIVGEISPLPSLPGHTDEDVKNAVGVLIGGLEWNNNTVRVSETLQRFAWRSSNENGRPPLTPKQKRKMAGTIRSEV
Chain of Steroidogenic factor 1 (Q13285 whole entry): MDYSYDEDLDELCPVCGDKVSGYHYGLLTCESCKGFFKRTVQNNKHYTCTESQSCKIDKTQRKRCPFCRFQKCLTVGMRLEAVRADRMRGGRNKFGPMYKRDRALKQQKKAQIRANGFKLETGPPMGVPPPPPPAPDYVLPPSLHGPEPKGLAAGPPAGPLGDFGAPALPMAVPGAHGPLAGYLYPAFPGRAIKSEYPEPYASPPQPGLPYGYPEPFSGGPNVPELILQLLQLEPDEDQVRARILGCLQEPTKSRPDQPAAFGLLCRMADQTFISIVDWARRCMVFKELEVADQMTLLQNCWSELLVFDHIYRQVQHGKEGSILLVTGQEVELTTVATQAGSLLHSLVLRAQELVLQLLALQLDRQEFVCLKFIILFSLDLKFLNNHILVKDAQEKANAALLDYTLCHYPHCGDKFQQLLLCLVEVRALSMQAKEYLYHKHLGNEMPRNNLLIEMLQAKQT
Chain of Large T antigen (P03070 whole entry): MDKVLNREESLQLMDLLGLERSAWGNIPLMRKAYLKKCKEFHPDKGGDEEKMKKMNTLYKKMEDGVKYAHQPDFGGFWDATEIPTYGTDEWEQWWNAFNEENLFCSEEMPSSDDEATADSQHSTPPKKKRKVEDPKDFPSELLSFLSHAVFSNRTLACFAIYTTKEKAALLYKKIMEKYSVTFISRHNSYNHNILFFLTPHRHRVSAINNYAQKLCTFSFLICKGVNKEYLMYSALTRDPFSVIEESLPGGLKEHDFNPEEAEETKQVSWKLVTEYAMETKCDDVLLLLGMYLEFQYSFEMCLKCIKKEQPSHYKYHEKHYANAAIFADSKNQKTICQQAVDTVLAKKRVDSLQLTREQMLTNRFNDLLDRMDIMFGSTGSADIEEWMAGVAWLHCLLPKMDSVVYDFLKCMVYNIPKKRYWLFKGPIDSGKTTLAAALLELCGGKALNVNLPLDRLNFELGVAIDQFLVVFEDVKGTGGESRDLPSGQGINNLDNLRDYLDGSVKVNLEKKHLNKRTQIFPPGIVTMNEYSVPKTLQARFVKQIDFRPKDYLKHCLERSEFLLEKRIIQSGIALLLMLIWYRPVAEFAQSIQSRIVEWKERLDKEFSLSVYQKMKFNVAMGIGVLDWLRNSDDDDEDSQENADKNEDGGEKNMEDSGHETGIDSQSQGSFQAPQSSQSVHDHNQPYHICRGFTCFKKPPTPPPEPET
Chain of DNA dC->dU-editing enzyme APOBEC-3A (P31941 whole entry): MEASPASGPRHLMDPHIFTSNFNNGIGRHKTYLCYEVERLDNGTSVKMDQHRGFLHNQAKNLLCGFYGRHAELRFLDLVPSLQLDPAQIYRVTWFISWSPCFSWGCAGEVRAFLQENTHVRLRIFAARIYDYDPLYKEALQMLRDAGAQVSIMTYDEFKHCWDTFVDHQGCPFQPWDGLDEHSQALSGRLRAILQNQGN

COc1ccc2c(c1O)-c1cccc3c1[C@@H](C2)N(C)CC3
AC50 [1]: 10.7 µM (active)

NC1=NC[C@H](Cc2ccc(O)cc2)N1CCC12CC3CC(CC(C3)C1)C2
EC50 [2]: > 160 µM (inactive) | IC50 [3]: > 20 µM (inactive) | AC50 [1]: 18.5 µM (active)

CC(C)c1ccc(CN2CCC(C(=O)NCc3cccnc3)CC2)cc1
IC50 [4]: > 64 µM (inactive)

Cc1cccc(C)c1-n1c(C)cc(/C=C2\C(=O)NN(c3ccccc3)C2=O)c1C
CC50 [5]: 36.6 µM (active) | CC50 [6]: > 40 µM (active) | IC50 (cells [7]): 7.55 µM (active)

COC1=C(Nc2ccc(O)cc2)C(=O)c2ccccc2C1=O
IC50 (Large T antigen): 9.88 µM (active) | IC50 (Nonstructural protein 1): 24.7 µM (active) | AC50 [8]: 5.14 µM (active) | AC50 [9]: > 380 µM (inactive) | EC50 (Protein RecA): 1.16 µM (active) | CC50 [10]: 56.8 µM (active) | IC50 [11]: 24.4 µM (active)

CCN(CC)CC(O)Cn1c(C)c(-c2ccccc2)c2cc([N+](=O)[O-])ccc21 (centres undefined)
AC50 [1]: 8.3 µM (active)

O=C(NN1CCOCC1)c1cc(-c2ccc(Br)cc2)nc2ccccc12
IC50 [4]: > 64 µM (inactive)

CCN1/C(=C/c2ccc3cc(C)ccc3[n+]2CC)Sc2cc(C)ccc21
AC50 [12]: 3.75 µM (active) | CC50 [10]: 23.1 µM (active) | IC50 [11]: 80.4 µM (active)

Cc1ccc(C(=O)CSc2ncnc3sc4c(c23)CCCC4)cc1
IC50 [4]: > 64 µM (inactive)

COc1cc2nc(N(CCCN(C)C)C(=O)c3ccc(C(=O)c4ccccc4)cc3)sc2cc1OC
AC50 [1]: 15.8 µM (active)

COc1ccc(C(=O)OCC[N+]2(C)CCOCC2)cc1
IC50 [13]: 1.97 µM (active) | IC50 [4]: 50 µM (inactive) | IC50 [14]: 3.47 µM (active)

CCCS(=O)(=O)N1CCN(S(=O)(=O)c2ccccc2)CC1
IC50 [4]: > 64 µM (inactive)

O=C(Nc1cccc(Cl)c1N1CCOCC1)c1ccc([N+](=O)[O-])o1
CC50 [6]: > 40 µM (active)

NS(=O)(=O)c1ccc(O)c(NC(=O)c2ccc([N+](=O)[O-])o2)c1
CC50 [6]: > 40 µM (active) | IC50 [15]: 4.16 µM (active) | IC50 (Steroidogenic factor 1): 1.52 µM (active) | IC50 [16]: 35.9 µM (inactive)

CN(C)CCOc1ccc2c(c1)C(=O)C(=Cc1ncc([N+](=O)[O-])n1C)C2
AC50 [1]: 7.08 µM (active) | AC50 (Paired box protein Pax-8): 1.89 µM (active)

CCN(CC)S(=O)(=O)c1ccc(N/N=C(\C)c2ccc(OC)cc2O)nc1
EC50 [2]: 5.47 µM (active) | EC50 (cells [17]): 29.1 µM (active) | CC50 [6]: 3.86 µM (active) | EC50 [18]: > 38 µM (not active) | EC50 (cells [19]): > 350 µM (not active)

O=C(N/N=C/c1cc([N+](=O)[O-])ccc1O)C1CC1
CC50 [6]: > 40 µM (active)
